Results reported in patent US20100130597A1, “DNA-PKCS MODULATES ENERGY REGULATION AND BRAIN FUNCTION” (The United State of America, as represented by the …, priority 2007, published 2010).
Blank lines part the entries; values can stand above or below the molecule they belong to.

What was measured:
DNA-PKcs = molecular target: T1, DNA-PKcs (Homo sapiens, UniProt P78527); assay: DNA-PKcs activation in MCF7 cells, immunoblot for phosphorylated Ser2056; assay type: cell-based; details: for DNA-PKcs activation in the presence of 25 mM glucose: MCF7 cells, FIG. 5
T1 construct: endogenous in cells; host or cells: MCF7 (ATCC)
Procedure: MCF7 cells were obtained from the ATCC. MCF7 cells in G0 were treated with varying doses of H2O2 (FIG. 1). The cells were examined while in the G0 phase of their life cycle to mimic the post-mitotic state of cells in vivo. Low passage MCF-7 cells in G0 were exposed to varying concentrations of H2O2 for 60 minutes with or without Euk-134 or ionizing radiation (5 Gy). For Western blot analysis of DNA-PKcs activation and the activation of other signaling pathways in this study, the following antibodies were used: ACC1 (Cell Signaling); p-ACC1 (Upstate); AMP-activated protein kinase (AMPK; Cell Signaling); p-AMPK(T172) (Cell Signaling); DNA-PK (Lab Vision); p53 (Novocastra); p-DNA-PK(S2056) (Abeam); p-p53(S15) (Cell Signaling); γ-H2AX (Upstate); 53BP1 (Novus Biologicals).
Activation of DNA-PKcs was visualized by immunoblotting cell lysates with antibody specific for phosphorylated Ser2056, which is autophosphorylated during DNA-PKcs activation (Chen et al., J. Biol. Chem. 280: 14709-15 (2005)) (FIG. 1). […] Instead, H2O2 increased DNA-PKcs activation, and such activation was abrogated by the antioxidant Euk-134 (FIG. 1), a potent synthetic superoxide dismutase and catalase mimetic (Chatterjee, Am. J. Nephrol. 24: 165-77 (2004)).
MCF7 cells were then cultured in 25 mM glucose. Aliquots of the cultured MCF7 cells were treated with ionizing radiation and/or the DNA-PKcs-specific inhibitor NU7026. Treatment with glucose and ionizing radiation increased DNA-PKcs phosphorylation (data not shown). […] The basal activity of DNA-PKcs in MCF-7 cells in 25 mM glucose was detectable even in the absence of ionizing radiation, but this basal activity was suppressed with the DNA-PKcs-specific inhibitor NU7026 (data not shown).

Sirt1 and PGC-1α = Sirt1 and PGC-1α expression in C2C12 myoblasts; assay type: cell-based
Procedure: (§1) Increased mitochondrial function boosts energy production and physical endurance. […] Further tests were therefore conducted to ascertain whether DNA-PKcs inhibitor elevates mitochondrial biogenesis and expression of PGC-1α and Sirt, which are important for mitochondrial biogenesis. […] It is important to note that only 2.5 μM of NU7026 was required to induce a similar level of Sirt1 to that induced by 25-50 μM Resveratrol, a well-known, potent Sirt1 activator.

LKB1 = LKB1 activation (LKB1 phosphorylation) in C2C12 cells; assay type: cell-based; details: NU7026 2.5 μM, Resveratrol 50 μM, FIG. 51A
Procedure: Cells were treated with DNA-PKcs inhibitors to ascertain whether DNA-PKcs suppresses LKB1 activity in vitro.

C2C12 cells = assay: Mitochondrial DNA copy number in C2C12 cells; assay type: cell-based; details: C2C12 myoblasts, FIG. 49C
Procedure: Quantitative Real-Time PCR was used to assess the relative amounts of nuclear DNA and mtDNA, to permit assessment of the ratio of mtDNA to nucleic DNA, which reflects the tissue concentration of mitochondria per cell. Muscle tissues were homogenized and digested with Proteinase K overnight in a lysis buffer for DNA extraction by conventional phenol-chloroform method. Quantitative PCR was performed using the following primers: […]
as §1, with “activator. In FIG. 49C, mitochondrial DNA copy number increased (>1.8 fold) in C2C12 cells after 2.5 μM NU7026 treatment.” for “activator.”

MCF7 cells = assay: Reactive oxygen species production in MCF7 cells (CM-H2DCFDA); assay type: cell-based; details: for Reactive oxygen species production: NU 7026 5 μM 12 h, DNP 200 μM 10 min, Troglitazone 30 μM 4 hr, Euk-134 5 μM 3 h, MnTBAP 14 μM 3 h, FIG. 4
Text: Measurement of intracellular reactive oxygen species was based on changes in the fluorescence intensity of redox-sensitive fluorescent probes, including CM-H2DCFDA. CM-H2DCFDA is a probe for intracellular hydrogen peroxide (Jou M J et al. J. Biomed Sci 9:507 (2002)). CM-H2DCFDA rapidly diffuses into cells, reacts with intracellular glutathione and thiols, and yields a fluorescent product that is retained inside the cell (Shanker G et al. Mol Brain Res 128:48, 2004). The fluorescence intensity of CM-H2DCFDA is therefore indicative of the amount of intracellular H2O2.
Briefly, cells were incubated with 10 uM CM-H2DCFDA for 30 min at 37° C. The cells were then excited at the peak excitation wavelength for CM-H2DCFDA (485 nm) and emissions at 535 nm were measured with Wallac Victor multilable counter (Perkin Elmer). For glucose treatment, the total sugar content in the media was kept constant by supplementing with mannitol, which is not metabolized.
MCF-7 cells were obtained from ATCC and grown as recommended. Confluent MCF-7 cells were incubated with serum-free DMEM medium for 3-12 h before the experiment. MCF-7 cells were then treated with DNA-PK inhibitor NU 7026 (5 μM; Calbiochem) for 12 h, DNP (200 μM; Sigma) for 10 min, Troglitazone (30 μM) for 4 hr, Euk-134 (5 μM; Eukarion) for 3 h, MnTBAP (14 μM; Calbiochem) for 3 h and Resveratrol.

neurons = details: low concentrations; De Felice et al. 2001; cited from earlier work
DNA-PK = DNA-PK (Homo sapiens, UniProt P78527); details: Hardcastle et al., J. Med. Chem. 48: 7829-46 (2005); read-out: IC50 against DNA-PK; cited from earlier work
[1] = rats, systemic administration of kainic acid; Rong et al. 1999; cited from earlier work
[2] = middle cerebral artery ligation; Baker et al. 1998; cited from earlier work
[3] = Treadmill running endurance; assay type: in vivo, mice; details: ob/ob mice, FIG. 39
Procedure: Previous studies have shown that increased expression of PPARδ or PGC-1α in skeletal muscle decreases exercise-induced fatigue. Therefore, tests were performed to ascertain what was the physical endurance of 4, 7 and 14 month-old SCID and WT mice using treadmill running. Prior to the exercise test, the mice were accustomed to and trained by running on an Exer-3/6 mouse treadmill (Columbus Instruments) at 7 m/min for 5 minutes for 3 days. For the endurance test, the treadmill speed was increased to 10 m/min and mice were allowed to run until exhaustion.
The therapeutic potential of DNA-PKcs inhibitors to reverse physical decline with aging was tested. In particular, the physical endurance of obese and middle-aged mice treated with Cpd36 was examined by treadmill running. Obese mice fed a high-fat diet that were treated with Cpd36 were able to run 40-50% farther over a given period of time than the control mice fed the same high fat diet (FIG. 45), as measured by totaling the distance run on a treadmill. Middle-aged mice (13 months) fed a breeder diet who were similarly treated with Cpd36 were also able to run 40-50% farther than middle aged mice that received no such treatment (data not shown).

[4] = ROS levels in tissues of ob/ob mice; assay type: in vivo; details: FIG. 38
[5] = in vitro; cited from earlier work
[6] = Hot plate test, latency for pain reaction; assay type: in vivo, mice; details: data not shown
Procedure: Epidemiological studies indicate that people with mood disorders are twice as likely to have chronic pain compared to people without mood disorders (Ohayon et al., Arch. Gen. Psychiatry 60: 39-47 (2003)). Although it is possible that pain contributes to the depressed mood, it is also possible that perception of pain is increased in people with mood disorders. To determine whether SCID mice have altered pain tolerance, the latency for pain reaction to a hot plate was measured. […] (FIG. 30) and at 55° C.
Because tolerance to pain (Example 26) is also linked to the serotonergic pathways, measurements of the latency to pain reaction on hot plate after saline, serotonin reuptake inhibitor fluoxetine (Prozac) or serotonin antagonist GR38032F (Zofran) injection were made.
(§2) Elevated plus maze tests, light/dark chamber tests, forced swim tests (FST) and hot plate tests were performed as described earlier.

Elevated plus maze test = assay type: in vivo, mice; details: SCID mice, intraperitoneal injection, FIG. 33
Procedure: To evaluate whether SCID mice may also have altered anxiety, fear and depression-like traits, an elevated plus maze test was performed, which is a commonly used test to quantify the level of anxiety- and depression-like traits in rodents (Pellow et al. J. Neurosci. Methods 14: 149-67 (1985)). The elevated plus maze has narrow runways that are located 16 inches above the surface that are either closed or open. The animal is placed in the center of an elevated 4-arm maze in which 2 arms are open and 2 are enclosed. Mice generally avoid the open arms because of their fear of open space and height. The elevated plus-maze is used to determine the rodent's response to a potentially dangerous environment and anxiety-related behavior is measured by the degree to which the rodent avoids the unenclosed arms of the maze. Increase in the number of times the animal enters the open arm and the amount of time spent in the open arms reflect decreased anxiety and depression.
as §2

DNA-PKcs activation in the presence of 25 mM glucose (DNA-PKcs): decreased DNA-PKcs activation
Molecule: Oc1ccc(/C=C/c2cc(O)cc(O)c2)cc1 [Resveratrol]
concentration required to induce a similar level of Sirt1 (Sirt1 and PGC-1α): 25 to 50 µM
PGC-1α and Sirt1 expression (Sirt1 and PGC-1α; FIG. 49): increased
LKB1 activation (LKB1 phosphorylation) (LKB1): showed LKB1 activation
relative copy number of mitochondrial DNA (C2C12 cells): increases
Reactive oxygen species production (MCF7 cells): significantly decreased

Molecule: O=[N+]([O-])c1ccc(O)c([N+](=O)[O-])c1 [DNP, 2,4-dinitrophenol]
DNA-PKcs activation in the presence of 25 mM glucose (DNA-PKcs): decreased DNA-PKcs activation
protection of neurons against amyloid-beta peptide toxicity (neurons): protect neurons against the toxicity of the amyloid-beta peptide
Reactive oxygen species production (MCF7 cells): significantly decreased

Molecule: Manganese (III) tetrakis(4-benzoic acid)porphyrin [MnTBAP]
DNA-PKcs activation in the presence of 25 mM glucose (DNA-PKcs): decreased DNA-PKcs activation
Reactive oxygen species production (MCF7 cells): significantly decreased

DNA-PKcs activation in the presence of 25 mM glucose (DNA-PKcs): decreased DNA-PKcs activation
Molecule: CN(C)C(=N)NC(=N)N [metformin]

Molecule: Cc1c(C)c2c(c(C)c1O)CCC(C)(COc1ccc(CC3SC(=O)NC3=O)cc1)O2 (racemic) [TZD, (±)-[[4-[(3,4-dihydro-6-hydroxy-2,5,7,8-tetramethl-2H-1-benzopyran-2-yl)methoxy]phenyl]methyl]-2,4-thiazolidinedione]
Reactive oxygen species production (MCF7 cells): significantly decreased

Molecule: O=c1cc(N2CCOCC2)oc2c(-c3cccc4c3sc3ccccc34)cccc12 [NU7441, 8-dibenzothiophen-4-yl-2-morpholin-4-yl-chromen-4-one]
IC50 (DNA-PK): 0.013 µM

H2O2-induced DNA-PKcs activation (DNA-PKcs; MCF7 cells in G0, H2O2 60 minutes, FIG. 1): abrogated
DNA-PKcs activation in the presence of 25 mM glucose (DNA-PKcs): decreased DNA-PKcs activation
Molecule: Euk-134
oxidative stress and brain damage [1]: prevent oxidative stress and attenuate brain damage
effect in rat stroke model [2]: protective effects
Reactive oxygen species production (MCF7 cells): significantly decreased
glucose-induced reactive oxygen species production (MCF7 cells; glucose 0-25 mM, 3 hr, FIG. 2): partially suppressed
treadmill running ability [3]: increased running ability of ob/ob mice dramatically
ROS production in muscle, WAT and heart tissues [4]: decreased ROS production
hydrogen peroxide consumption [5]: consumes hydrogen peroxide in vitro

Molecule: CNCCC(Oc1ccc(C(F)(F)F)cc1)c1ccccc1 (stereo not drawn) [Fluoxetine]
latency for pain reaction on hot plate ([6]; wild-type mice): increased the latency for pain reaction in wild-type mice

Molecule: Cc1nccn1CC1CCc2c(c3ccccc3n2C)C1=O.Cl (stereo not drawn) [GR38032F]
latency for pain reaction on hot plate ([6]; SCID mice): decreased the latency for pain reaction in SCID mice
latency for pain reaction on hot plate ([6]; wild-type mice): not wild-type mice
number of SCID mice that stayed in the open arm 30 sec or longer (Elevated plus maze test): decreased dramatically
